Laboratory results from patent EP4722213A1, “NITROGEN-CONTAINING FUNCTIONAL GROUP-SUBSTITUTED PYRIDAZINOPYRIDONE DERIVATIVE AND USE THEREOF” (Sichuan Huiyu Pharmaceutical Co., Ltd., priority 2023, dated 2024).
Structures can show the parent of a compound that is named as a salt.

Each molecule was assayed against T1, SOS1 (Homo sapiens, UniProt Q07889) (assay: biochemical).
T1 sequence (Q07889 1-1333): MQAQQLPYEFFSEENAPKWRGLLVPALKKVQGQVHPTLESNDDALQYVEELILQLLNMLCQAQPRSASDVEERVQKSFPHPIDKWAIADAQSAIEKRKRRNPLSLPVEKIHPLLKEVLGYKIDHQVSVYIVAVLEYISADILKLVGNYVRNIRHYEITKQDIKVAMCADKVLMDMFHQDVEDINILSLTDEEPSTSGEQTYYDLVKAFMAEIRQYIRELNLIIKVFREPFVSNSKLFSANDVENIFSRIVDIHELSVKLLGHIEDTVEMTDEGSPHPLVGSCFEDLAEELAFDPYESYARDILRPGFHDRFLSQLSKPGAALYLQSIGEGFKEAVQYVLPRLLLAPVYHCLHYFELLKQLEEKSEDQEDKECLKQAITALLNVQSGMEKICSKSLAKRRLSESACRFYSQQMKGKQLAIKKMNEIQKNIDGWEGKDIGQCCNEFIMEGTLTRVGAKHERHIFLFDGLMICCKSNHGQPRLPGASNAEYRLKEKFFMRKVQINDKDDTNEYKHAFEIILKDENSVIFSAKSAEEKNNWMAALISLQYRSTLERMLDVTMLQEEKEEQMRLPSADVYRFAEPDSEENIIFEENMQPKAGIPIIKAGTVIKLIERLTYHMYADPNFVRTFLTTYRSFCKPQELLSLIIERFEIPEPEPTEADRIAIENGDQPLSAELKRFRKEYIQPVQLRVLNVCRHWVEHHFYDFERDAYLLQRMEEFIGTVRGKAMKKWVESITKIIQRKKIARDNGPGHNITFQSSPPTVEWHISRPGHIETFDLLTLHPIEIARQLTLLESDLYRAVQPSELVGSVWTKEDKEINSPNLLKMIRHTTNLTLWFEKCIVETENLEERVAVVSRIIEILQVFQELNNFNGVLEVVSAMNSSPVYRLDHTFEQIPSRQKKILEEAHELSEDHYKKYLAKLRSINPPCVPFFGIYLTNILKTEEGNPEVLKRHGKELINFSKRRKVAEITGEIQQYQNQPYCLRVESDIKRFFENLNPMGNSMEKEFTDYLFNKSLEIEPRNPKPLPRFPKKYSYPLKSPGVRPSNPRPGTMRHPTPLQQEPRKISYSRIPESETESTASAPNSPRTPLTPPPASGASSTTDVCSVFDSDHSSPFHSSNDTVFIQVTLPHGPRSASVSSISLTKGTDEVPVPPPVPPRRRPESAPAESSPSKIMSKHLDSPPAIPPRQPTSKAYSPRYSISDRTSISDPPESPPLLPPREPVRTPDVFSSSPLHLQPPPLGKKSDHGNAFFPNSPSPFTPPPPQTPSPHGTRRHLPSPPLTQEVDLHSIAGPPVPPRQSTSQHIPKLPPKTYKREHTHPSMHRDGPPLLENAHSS
In the case of `C[C@@H](Nc1nnc(N2CC(F)(F)C2)c2cc(=O)n(C3(C)CC3)cc12)c1cccc(C(F)F)c1F` [Example 22, (R)-1-(3,3-difluoroazetidin-1-yl)-4-((1-(3-(difluoromethyl)-2-fluorophenyl)ethyl)amino)-6-(1-methylcyclopropyl) pyrido[3,4-d]pyridazin-7(6H)-one], the IC50 is reported as 16.4 nM. With `C[C@@H](Nc1nnc(NC2CCN(C)C2)c2cc(=O)n(C3(C)CC3)cc12)c1cccc(C(F)F)c1F` (stereo partly drawn) [Example 126, 4-(((R)-1-(3-(difluoromethyl)-2-fluorophenyl)ethyl)amino)-6-(1-methylcyclopropyl)-1-((1-methylpyrrolidin-3-yl)amino)pyrido[3,4 d]pyridazin-7(6H)-one] the IC50 was 9.4 nM. For `C[C@@H](Nc1nnc(N(C)C)c2cc(=O)n(C3CC3)cc12)c1cccc(C(F)F)c1F` [Example 76, (R)-6-cyclopropyl-4-((1-(3-(difluoromethyl)-2-fluorophenyl)ethyl)amino)-1-(dimethylamino) pyrido[3,4-d]pyridazin-7(6H)-one], the IC50 was 9.2 nM. In the case of `CCN(CC)c1nnc(N[C@H](C)c2cccc(C#N)c2C)c2cn(C3(C)CC3)c(=O)cc12` [Example 71, (R)-3-(1-((1-(diethylamino)-6-(1-methylcyclopropyl)-7-oxo-6,7-dihydropyrido[3,4-d]pyridazin-4-yl)amino)ethyl)-2-methylbenzonitrile], the IC50 is reported as 30.8 nM. `Cc1cc(N)cc([C@@H](C)Nc2nnc(N3CCN(C)CC3)c3cc(=O)n(C4CC4)cc23)c1F` [Example 141, (R)-4-((1-(5-amino-2-fluoro-3-methylphenyl)ethyl)amino)-6-cyclopropyl-1-(4-methylpiperazin-1-yl)pyrido[3,4-d]pyridazin-7(6H)-one] was tested, and the IC50 was 7.8 nM. `C[C@@H](Nc1nnc(N(C)CCN(C)C)c2cc(=O)n(C3(C)CC3)cc12)c1cccc(C(F)F)c1F` [Example 124, (R)-4-((1-(3-(difluoromethyl)-2-fluorophenyl)ethyl)amino)-1-((2-(dimethylamino)ethyl)(methyl)amino)-6-(1-methylcyclopropyl) pyrido[3,4-d]pyridazin-7(6H)-one formate] gave an IC50 of 5.8 nM. `C[C@@H](Nc1nnc(N(C)C2CC2)c2cc(=O)n(C3(C)CC3)cc12)c1cccc(C(F)F)c1F` [Example 225, (R)-1-(cyclopropyl(methyl)amino)-4-((1-(3-(difluoromethyl)-2-fluorophenyl)ethyl)amino)-6-(1-methylcyclopropyl) pyrido[3,4-d]pyridazin-7(6H)-one] gave an IC50 of 7.6 nM. `C[C@@H](Nc1nnc(N2CCS(=O)(=O)CC2)c2cc(=O)n(C3CC3)cc12)c1cccc(C(F)F)c1F` [Example 24, (R)-6-cyclopropyl-4-((1-(3-(difluoromethyl)-2-fluorophenyl)ethyl)amino)-1-(1,1-dioxidothiomorpholino)pyrido[3,4-d]pyridazin-7(6H)-one] showed an IC50 of 12.7 nM. For `C[C@@H](Nc1nnc(N2CCN3CCCCC3C2)c2cc(=O)n(C3(C)CC3)cc12)c1cccc(C(F)F)c1F` (stereo partly drawn) [Example 203, 4-(((R)-1-(3-(difluoromethyl)-2-fluorophenyl)ethyl)amino)-6-(1-methylcyclopropyl)-1-(octahydro-2H-pyrido[1,2-a]pyrazin-2-yl)pyrido[3,4-d]pyridazin-7(6H)-one], the IC50 was 3.8 nM. For `C[C@@H](Nc1nnc(NC2COC2)c2cc(=O)n(C3(C)CC3)cc12)c1cccc(C(F)F)c1F` [Example 115, (R)-4-((1-(3-(difluoromethyl)-2-fluorophenyl)ethyl)amino)-6-(1-methylcyclopropyl)-1-(oxetan-3-ylamino)pyrido[3,4-d]pyridazin-7(6H)-one], the IC50 was 4.1 nM. With `Cc1cc(N)cc([C@@H](C)Nc2nnc(N3CCN(C(C)C)CC3)c3cc(=O)n(C4CC4)cc23)c1F` [Example 147, (R)-4-((1-(5-amino-2-fluoro-3-methylphenyl)ethyl)amino)-6-cyclopropyl-1-(4-isopropylpiperazin-1-yl)pyrido[3,4-d]pyridazin-7(6H)-one formate] the IC50 was 6.3 nM. `Cc1c(C#N)cccc1[C@@H](C)Nc1nnc(N2CCN(C(C)C)CC2)c2cc(=O)n(C3CCN(C)CC3)cc12` [Example 132, (R)-3-(1-((1-(4-isopropylpiperazin-1-yl)-6-(1-methylpiperidin-4-yl)-7-oxo-6,7-dihydropyrido[3,4-d]pyridazin-4-yl)amino)ethyl)-2-methylbenzonitrile] was tested, and the IC50 was 16.6 nM. In the case of `C[C@@H](Nc1nnc(N2CCN(C3CC3)CC2)c2cc(=O)n(C3(C)CC3)cc12)c1cccc(C(F)(F)F)c1F` [Example 170, (R)-4-((1-(2-fluoro-3-(trifluoromethyl)phenyl)ethyl)amino)-1-(4-cyclopropylpiperazin-1-yl)-6-(1-methylcyclopropyl) pyrido[3,4-d]pyridazin-7(6H)-one], the IC50 is reported as 6.7 nM. `C[C@@H](Nc1nnc(-n2ccnc2)c2cc(=O)n(C3CC3)cc12)c1cccc(C(F)F)c1F` [Example 31, (R)-6-cyclopropyl-4-((1-(3-(difluoromethyl)-2-fluorophenyl)ethyl)amino)-1-(1H-imidazol-1-yl)pyrido[3,4-d]pyridazin-7(6H)-one] was tested, and the IC50 was 19.5 nM. `C[C@@H](Nc1nnc(N2C3CCC2COC3)c2cc(=O)n(C3(C)CC3)cc12)c1cccc(C(F)F)c1F` [Example 202, 1-(3-oxa-8-azabicyclo[3.2.1]octan-8-yl)-4-(((R)-1-(3-(difluoromethyl)-2-fluorophenyl)ethyl)amino)-6-(1-methylcyclopropyl) pyrido[3,4-d]pyridazin-7(6H)-one] was tested, and the IC50 was 12.4 nM. `C[C@@H](Nc1nnc(N2CC3CC3C2)c2cc(=O)n(C3(C)CC3)cc12)c1cccc(C(F)F)c1F` (stereo partly drawn) [Example 21, 1-(3-azabicyclo[3.1.0]hexan-3-yl)-4-(((R)-1-(3-(difluoromethyl)-2-fluorophenyl)ethyl)amino)-6-(1-methylcyclopropyl) pyrido[3,4-d]pyridazin-7(6H)-one] showed an IC50 of 6.9 nM. `C[C@@H](Nc1nnc(NC23CC(C2)C3)c2cc(=O)n(C3(C)CC3)cc12)c1cccc(C(F)F)c1F` [Example 125, (R)-1-(bicyclo[1.1.1]pentan-1-ylamino)-4-((1-(3-(difluoromethyl)-2-fluorophenyl)ethyl)amino)-6-(1-methylcyclopropyl) pyrido[3,4-d]pyridazin-7(6H)-one] showed an IC50 of 14.1 nM. For `C[C@@H](Nc1nnc(N2CCCCC2)c2cc(=O)n(C3(C)CC3)cc12)c1cccc(C(F)F)c1F` [Example 6, (R)-4-((1-(3-(difluoromethyl)-2-fluorophenyl)ethyl)amino)-6-(1-methylcyclopropyl)-1-(piperidin-1-yl)pyrido[3,4-d]pyridazin-7(6H)-one], the IC50 was 14.8 nM. Molecule `C[C@@H](Nc1nnc(N2CCC[C@H](CO)C2)c2cc(=O)n(C3(C)CC3)cc12)c1cccc2c1CCC2(F)F` [Example 207, 4-(((R)-1-(1,1-difluoro-2,3-dihydro-1H-inden-4-yl)ethyl)amino)-1-((S)-3-(hydroxymethyl)piperidin-1-yl)-6-(1-methylcyclopropyl) pyrido[3,4-d]pyridazin-7(6H)-one] has an IC50 of 7.3 nM. Molecule `Cc1c(C(F)F)cccc1[C@@H](C)Nc1nnc(N2CCN(C)CC2)c2cc(=O)n(C3CC3)cc12` [Example 210, (R)-6-cyclopropyl-4-((1-(3-(difluoromethyl)-2-methylphenyl)ethyl)amino)-1-(4-methylpiperazin-1-yl)pyrido[3,4-d]pyridazin-7(6H)-one] has an IC50 of 2.7 nM. `C[C@@H](Nc1nnc(-n2nccn2)c2cc(=O)n(C3CC3)cc12)c1cccc(C(F)F)c1F` [Example 32, (R)-6-cyclopropyl-4-((1-(3-(difluoromethyl)-2-fluorophenyl)ethyl)amino)-1-(2H-1,2,3-triazol-2-yl)pyrido[3,4-d]pyridazin-7(6H)-one] was tested, and the IC50 was 25.5 nM. Work on `C[C@@H](Nc1nnc(N2CCC3(CC3)C2)c2cc(=O)n(C3(C)CC3)cc12)c1cccc(C(F)F)c1F` [Example 187, (R)-4-((1-(3-(difluoromethyl)-2-fluorophenyl)ethyl)amino)-6-(1-methylcyclopropyl)-1-(5-azaspiro[2.4]heptan-5-yl)pyrido[3,4-d]pyridazin-7(6H)-one] yielded an IC50 of 4.8 nM. `C[C@@H](Nc1nnc(N2CCN(C)CC2)c2cc(=O)n(C3(C)CC3)cc12)c1cccc(C(F)(F)CO)c1` [Example 226, (R)-4-((1-(3-(1,1-difluoro-2-hydroxyethyl)phenyl)ethyl)amino)-6-(1-methylcyclopropyl)-1-(4-methylpiperazin-1-yl)pyrido[3,4-d]pyridazin-7(6H)-one] gave an IC50 of 4.3 nM.
